# According to publication PMC9658812, “New Pyrimidine-5-Carbonitriles as COX-2 Inhibitors: Design, Synthesis, Anticancer Screening, Molecular Docking, and In Silico ADME Profile Studies” (Molecules, 2022):
# Where two headings read alike, the source gives them in different places.
# Tests used:
# [1] = tested on: A549 cells (non-small-cell lung cancer); experiment: MTT cytotoxicity assay, A549; conditions: for IC50: Homo sapiens, A549, 24 h, read-out: Cytotoxicity IC50 A549
# Method: (§1) Breast carcinoma (MCF-7), renal cell carcinoma (A498), lung cancer (A549), and liver carcinoma (HepG2) cell lines, in addition to non-tumorigenic WI-38 cell lines, were collected from the American Type Culture Collection. The cells were grown in DMEM (Invitrogen/Life Technologies) containing 1% penicillin-streptomycin, 10 µg/mL of insulin (Sigma), and 10% FBS (Hyclone).
# (§2) To check the possible cellular toxicity, synthesized compounds were subjected to the MTT [3-(4,5-dimethylthiazol-2-yl)-2,5-diphenyltetrazolium bromide] assay against the MCF7, A549, A498, and HepG2 cell lines. […] Later, 2.0–3.0 mL of Trypsin EDTA solution was added into the flask containing the cell layers for 5–15 min to disperse the cell layer, which was observed through an inverted microscope. By gently pipetting, aspirated cells were added into a 6.0–8.0 mL growth medium. […] An amount of 20 μL of a 5-mg/mL MTT solution was applied after a 24-h drug-treatment period, and it was incubated for 4 h. To dissolve the produced purple formazan, each well received 100 μL of dimethyl sulfoxide (DMSO).
# [2] = tested on: MCF7 cells (breast carcinoma); experiment: MTT cytotoxicity assay, MCF7; conditions: for IC50: Homo sapiens, MCF7, 24 h, read-out: Cytotoxicity IC50 MCF7; for fold more cytotoxic than doxorubicin, MCF7: versus doxorubicin
# Method: as §1, §2
# [3] = tested on: WI-38 cells (normal cell derived from lung tissue); experiment: Cytotoxicity on non-tumorigenic WI-38 cell line; conditions: Homo sapiens, WI-38, read-out: WI-38 IC50
# Method: as §1, §2
# human COX-2 = biological target: T1, human COX-2 (Homo sapiens, UniProt P35354); experiment: COX-2 inhibition assay (fluorometric inhibitor screening kit); format: biochemical; conditions: for inhibition at 10 µM: 10^−5 M; for inhibition at 10 µM / inhibition at 1 µM / inhibition at 0.1 µM / inhibition at 0.01 µM / inhibition at 0.001 µM: mean of three experiments ± SD, read-out: COX-2 Inhibition (%); for inhibition at 1 µM: 10^−6 M; for inhibition at 0.1 µM: 10^−7 M; for inhibition at 0.01 µM: 10^−8 M; for inhibition at 0.001 µM: 10^−9 M; for IC50: human COX-2 assay kit, three experiments; for fold more potent than Nimesulide (COX-2 IC50): versus Nimesulide
# T1 construct: purchased Biovision, Zurich, Switzerland
# T1 sequence (P35354 18-604): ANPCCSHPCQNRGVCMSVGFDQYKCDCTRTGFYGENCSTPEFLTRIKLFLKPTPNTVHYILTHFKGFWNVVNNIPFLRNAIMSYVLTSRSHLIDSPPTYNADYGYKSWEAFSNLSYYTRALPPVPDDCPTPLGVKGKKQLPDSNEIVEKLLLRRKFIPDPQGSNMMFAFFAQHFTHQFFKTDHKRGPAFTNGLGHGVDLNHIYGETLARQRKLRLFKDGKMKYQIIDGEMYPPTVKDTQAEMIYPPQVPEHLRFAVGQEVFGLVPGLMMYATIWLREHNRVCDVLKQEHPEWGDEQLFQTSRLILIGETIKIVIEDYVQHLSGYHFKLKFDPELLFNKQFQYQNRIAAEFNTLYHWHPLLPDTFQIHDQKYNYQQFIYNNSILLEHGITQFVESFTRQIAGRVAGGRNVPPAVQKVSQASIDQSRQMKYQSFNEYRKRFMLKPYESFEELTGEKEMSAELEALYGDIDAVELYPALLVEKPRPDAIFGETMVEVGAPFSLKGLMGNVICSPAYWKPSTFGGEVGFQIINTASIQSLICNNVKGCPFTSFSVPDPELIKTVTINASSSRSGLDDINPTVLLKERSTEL
# Source text: Fluorometric inhibitor screening kits (Biovision, Zurich, Switzerland) were utilized for the COX-2 enzyme inhibition test, as described before.
# [4] = tested on: A498 cells (renal carcinoma); experiment: MTT cytotoxicity assay, A498; conditions: for IC50: Homo sapiens, A498, 24 h, read-out: Cytotoxicity IC50 A498; for fold more cytotoxic than doxorubicin, A498: versus doxorubicin
# Method: as §1, §2
# [5] = tested on: HepG2 cells (liver carcinoma); experiment: MTT cytotoxicity assay, HepG2; conditions: for IC50: Homo sapiens, HepG2, 24 h, read-out: Cytotoxicity IC50 HepG2
# Method: as §1, §2
# COX-2 = conditions: cited from earlier work
# HeLa cell lines = tested on: HeLa cell lines; parameters: method as in doi:10.1007/s00044-012-0051-9; conditions: anticancer activity in vitro; cited from earlier work
# MCF-7 = conditions: breast cancer cell line; cited from earlier work
# [6] = tested on: MDA-MB-231 breast cancer cell line; parameters: method as in PMID 28486908; conditions: cited from earlier work
SMILES,inhibition at 10 µM (human COX-2) [%],inhibition at 1 µM (human COX-2) [%],inhibition at 0.1 µM (human COX-2) [%],inhibition at 0.01 µM (human COX-2) [%],inhibition at 0.001 µM (human COX-2) [%],IC50 (human COX-2) [nM],melting point [°C],further results
"COc1ccc(-c2nc(NCc3nc4ccccc4o3)nc(OC)c2C#N)cc1 [Compound 3b, 2-(Benzo[d]oxazol-2-Ylmethylamino)-4-methoxy-6-(4-methoxyphenyl)pyrimidine-5-carbonitrile]",40.3 ± 0.62,33.3 ± 0.77,22.4 ± 0.59,77.01 ± 0.03,61.3 ± 0.96,200 ± 10,> 300,"IC50 [1]: 19 ± 0.52 nM; IC50 [2]: 3 ± 0.1 nM; fold more cytotoxic than doxorubicin, MCF7 [2]: three; IC50 [3]: 94700 ± 2500 nM; fold more potent than Nimesulide (COX-2 IC50) (human COX-2): approximately 4.7 fold; IC50 [4]: 4 ± 0.15 nM; fold more cytotoxic than doxorubicin, A498 [4]: two-fold; IC50 [5]: 22 ± 0.62 nM"
NS(=O)(=O)c1ccc(-c2nc(Cl)cc(NCc3cccs3)n2)cc1 [VII],–,–,–,–,–,–,–,IC50 (COX-2; COX-2 inhibitor potency): 12.7 nM
COc1ccc(-c2nc(Nc3ccc(S(N)(=O)=O)cc3)n3c(C)nnc3c2C#N)cc1OC [II],–,–,–,–,–,–,–,IC50 (HeLa cell lines): 39 nM
"COc1ccc(-c2nc(NCc3nc4ccccc4s3)nc(OC)c2C#N)cc1 [Compound 3c, 2-(Benzo[d]thiazol-2-ylmethylamino)-4-methoxy-6-(4-methoxyphenyl)pyrimidine-5-carbonitrile]",74.3 ± 1.03,57.1 ± 0.92,37.6 ± 0.6,32.5 ± 0.53,21 ± 0.4,290 ± 10,> 300,–
CS(=O)(=O)c1ccc(C2=C(c3ccccc3)C(=O)OC2)cc1 [rofecoxib],–,–,–,–,–,–,–,IC50 (COX-2): 292 nM
COc1ccc(-c2nc(N3N=C(c4ccc(F)cc4)CCC3=O)n(C)c(=O)c2C#N)cc1 [Compound V],–,–,–,–,–,–,–,IC50 (MCF-7): 2560 nM; IC50 [6]: 3430 nM

# Further lines, with some results ahead:
inhibition at 10 µM (human COX-2) [%],inhibition at 1 µM (human COX-2) [%],inhibition at 0.1 µM (human COX-2) [%],inhibition at 0.01 µM (human COX-2) [%],inhibition at 0.001 µM (human COX-2) [%],IC50 (human COX-2) [nM],melting point [°C],SMILES,further results
42.1 ± 0.93,28.7 ± 0.51,20.3 ± 0.52,73.2 ± 1.21,64.3 ± 1.05,260 ± 10,276 to 278,"COc1ccc(-c2nc(NS(=O)(=O)c3ccc(C(C)(C)C)cc3)nc(OC)c2C#N)cc1 [Compound 5c, 4-Tert-Butyl-N-(5-cyano-4-methoxy-6-(4-methoxyphenyl)pyrimidin-2-yl)benzene sulfonamide]",–
40.2 ± 0.58,36.2 ± 0.44,24.7 ± 0.31,75.2 ± 1.11,59.5 ± 1.04,180 ± 10,283 to 285,"COc1ccc(-c2nc(NS(=O)(=O)c3ccc(C)cc3)nc(OC)c2C#N)cc1 [Compound 5b, N-(5-Cyano-4-methoxy-6-(4-methoxyphenyl)pyrimidin-2-yl)-4-methylbenzene-sulfonamide]","IC50 [1]: 3 ± 0.07 nM; fold more cytotoxic than doxorubicin, A549 ([1]; versus doxorubicin): 4.3 fold; IC50 [2]: 2 ± 0.05 nM; fold more cytotoxic than doxorubicin, MCF7 [2]: 4.5 fold; IC50 [3]: 89600 ± 2750 nM; fold more potent than Nimesulide (COX-2 IC50) (human COX-2): ~9.3 fold; IC50 [4]: 1 ± 0.05 nM; fold more cytotoxic than doxorubicin, A498 [4]: 7 fold; IC50 [5]: 12 ± 0.38 nM; fold more cytotoxic than doxorubicin, HepG2 ([5]; versus doxorubicin): 2.1 fold"
